Measurements taken from a melting point compilation (Tetko et al.; mined from patent text by program, amines drawn as free bases though some values may be those of a salt).

melting point [°C] | SMILES
98 to 99 | CCCCCCCCCCS(=O)(=O)N[C@H]1CCCNC(=O)C1
85 to 87 | CN1C(=O)C(c2cccc(Br)c2)(c2ccc(OC(F)F)c(C3CC3)c2)N=C1N (configuration not stated)
66 to 68 | COc1cccc2c1OC(COS(=O)(=O)c1ccc(C)cc1)CO2 (configuration not stated)
177 | Cc1ccc2nc3cc(C)c(=O)cc-3sc2c1
129 to 132 | CCCc1c(-c2ccc(Cl)cc2)n[nH]c1-c1cccs1
92 to 93 | O=C(O)C(=O)c1csc2ccccc12
194 to 195 | O=[N+]([O-])c1cc(Cl)c(C=CN2CCN(c3nsc4ccccc34)CC2)cc1Cl
210 | COc1ccc(C2=C(c3c[nH]c4ccccc34)C(=O)NC2=O)cc1OC
116 to 117 | Cc1c(Br)cc2c(c1C)OC(=O)C2(C)c1ccc(C(C)C)cc1 (configuration not stated)
148 to 150 | O=S(=O)(Nc1cccnc1Nc1ccccc1)c1ccccc1
273 to 275 | NC(=O)c1ccc(-c2cnc3[nH]c(=O)n(CC4CCOCC4)c3n2)cc1
161 to 164 | COc1ccc(Cl)cc1C1OC(=O)N(C(C)=O)C1=O (configuration not stated)
53 to 55 | CC(O)c1cc2c(s1)C(C)(C)CCC2(C)C (configuration not stated)
122 | COCc1ccc(Cl)c(C2(C)C(=O)N(Cc3ccc(OC)cc3OC)c3ccc(Cl)cc32)c1 (configuration not stated)
127 to 129 | CC(CC(=O)NCc1ccccc1)C(N)=O (configuration not stated)
188 to 191 | CC(C)N1CCC(COc2ccc(-c3ccc(=O)[nH]n3)cn2)CC1
128 to 130 | COC1=C(OC)C(=O)C(CCC(=O)NCC(=O)O)=C(C)C1=O
190 to 194 | CCc1cnc(N2CCC(c3ccc4oc(-c5ccc(S(C)(=O)=O)cc5F)nc4c3)CC2)nc1
131 | CCCCc1ccc(C(=O)Nc2ccc3cc(CN4CCCC4)cnc3c2C)cc1
160 to 162 | CCOC(=O)C1=C(COCc2nnn(CCNc3cc(Cl)ncn3)n2)NC(C)=C(C(=O)OC)C1c1cccc(Cl)c1Cl (configuration not stated)
116 to 120 | Cn1ccnc1Sc1cc(Cl)ccc1N
135 to 137 | C[C@@H](Cn1ncc2ccc(O)c(C=O)c21)NC(=O)OCc1ccccc1
109 | Cc1cccc(-c2n[nH]cc2Cl)c1
130 to 131 | CCOCn1c(Oc2ccccc2)c(CC)c(=O)[nH]c1=O
257 to 260 | Cc1ccc(C(=O)NN2CCOCC2)c(Nc2ccc3[nH]ncc3c2)n1

melting point [°C] | SMILES
95 to 96 | CCOc1ccc2nc(CCl)cn2c1
222 to 225 | OC[C@H]1C[C@@H](n2cnc3cc(Cl)c(Cl)cc32)[C@H](O)[C@@H]1O
118 | Cc1c(NC(=O)c2ccc(OC[C@@H]3CCCO3)cc2F)ccc2c1cc(CNCC(C)(C)O)n2C
98 | CCN(CC1CCCC1)c1nc2ccccc2cc1CN(Cc1cc(C(F)(F)F)cc(C(F)(F)F)c1)C(N)=S
116 to 117 | O=C1C=C(c2ccc(C(F)(F)F)cc2C(F)(F)F)CO1
275 to 276 | O=C(Nc1cccc(C(=O)O)c1)NC1C(=O)N(CC(=O)N2CCCC2)c2ccccc2N(C2CCCCC2)C1=O (configuration not stated)
138 to 140 | Nc1nc2ccccc2c2c1ncn2CCOCCCc1ccccn1
166 to 167 | O=c1c2ccccc2sc2ccc(N3CCOCC3)cc12
69 to 70 | COc1ccc(C(CCCCCCC(=O)O)=NOCc2ccc(OCc3nc(-c4ccccc4)oc3C)cc2)cc1
176 to 178 | COC(=O)C(=NO)c1nc2cccc(OC)c2oc1=O
124 to 125 | Cc1c(COc2cccc3cc(NS(=O)(=O)C(F)(F)F)ccc23)cccc1-c1ccccc1
178 to 180 | COc1cc2c(c(C(N)=O)c1OC)CCNCC2c1ccccc1 (configuration not stated)
118 to 120 | CC(C)CC(NC(=O)COc1cccc2ccccc12)C(=O)NC(Cc1ccccc1)C(=O)CSCc1ccco1 (configuration not stated)
118 | Cn1ncc(=O)[nH]c1=O
> 300 | O=C(O)c1ccc(NC(=O)c2ccc(F)cc2)cc1
276 to 277 | Cc1cc(CNC(=O)c2cc(-n3cnn(Cc4ccc(F)cc4)c3=O)n[nH]2)no1
133 to 135 | CN1CC(=O)N2CCC[C@H]2C1=O
137 to 138 | CCn1nc(C(=O)OCc2ccccc2)cc(Nc2cnccc2C)c1=O
171 to 182 | O=C(O)C1C=Nc2c(ccc3cc(C(=O)N4CCc5ccccc5C4)cnc23)C1=O (configuration not stated)
130 | COc1cc2c(cc1OC)CC(=O)N(CCCN(C)C1CCc3cc(Cl)c(Cl)cc3C1)CC2 (configuration not stated)
103 | COC1(c2cc(OCc3ccc4c(ccc(=O)n4C)c3)cc(C(F)(F)F)c2)CCOCC1
25 to 30 | C=CCCCCCCCCCN1C(=O)c2ccccc2C1=O
141 to 142 | CC(=O)Nc1onc(-c2ccccc2)c1Cl
42 to 43 | COc1ccccc1N1CCN(CC(O)COc2ccc(CC(C)=O)cc2)CC1 (configuration not stated)
79.2 | CCc1cccc(-c2nc(C3CCCCC3)n(C)n2)n1

melting point [°C] | SMILES
206 to 207 | CN(C)c1ccc(S(=O)(=O)Nc2cnc3ccc(Cl)cc3n2)cc1
38 to 39 | CCC(C)Nc1c([N+](=O)[O-])cc(C(F)(F)F)c(C)c1[N+](=O)[O-] (configuration not stated)
184 to 185 | O=C(Nc1cccc(C(F)(F)F)c1)Nc1ccc(OCc2ccccc2)cc1O
71 to 72 | CCc1cc(C)cc(CC)c1CO
258 to 259 | COc1ccc(-c2ccc3c(C(N)=O)nn(-c4ccc(S(N)(=O)=O)cc4)c3c2)cc1
125 | CN(C)C(=O)Nc1cccc(C#N)n1
103 to 104 | CCOC(=O)c1ccc(-c2ccc(-c3cccc(OCOC)c3)c(-c3ccc4c(c3)C(C)(C)CCC4(C)C)c2)cc1
164 to 165 | CCCCNS(=O)(=O)CC(O)(CCCC)C(N)C(O)CC1CCCCC1 (configuration not stated)
194 to 195 | CC(O)=C1C(c2ccccc2)=C(c2ccc(S(C)(=O)=O)cc2)C1(Cl)Cl
144 | FC(F)(F)c1cccc(C(c2ccc3ncccc3c2Cl)n2cncn2)c1 (configuration not stated)
262 to 263 | CCOc1c(OC)cc(C(=O)O)c(-c2c(C(=O)O)cc(OC)c3c2OCO3)c1OCC
180 to 184 | Cn1cc(C2=C(c3ccc4ccccc4c3)C(=O)NC2=O)c2ccccc21
159 to 165 | Cc1ccc(O)c(C)c1C=O
143 to 144 | COc1nnc(-c2ccc3occ(-c4ccc(OC(F)(F)F)cc4)c3c2)o1
101 to 102 | ClCc1cccc2c(-c3ccc(Cl)cc3)nccc12
209 to 211 | CCN1C(=O)C(C)(C)c2ccc(C(=O)Nc3ccncc3)cc21
109 to 111 | Cc1cc2c(cc1Cl)C(Br)(c1ccccc1Cl)C(=O)N2 (configuration not stated)
102 to 104 | CCN(C(=O)c1ccc2nonc2c1)C1CCOCC1
98 | CCOCCOc1ccc(OCC(O)CNCCNC(=O)N2CCOCC2)c(Br)c1 (configuration not stated)
48 | O=C(O)CCCCCCCCC1CO1 (configuration not stated)
75 to 76 | CCNc1nc(NC2CC2)cc(SC)n1
300 | CCc1c2c(c(C)[nH]c1=O)CC(c1ccccn1)CC2 (configuration not stated)
119 to 122 | Oc1cccc2c1c1ccccc1n2Cc1ccccc1
267 | Cc1ccc(C2=CCC(C)(C)c3cc(C(=O)c4ccc5cc(C(=O)O)ccc5c4)ccc32)cc1
117 to 118 | Cc1nc2c(NC(=O)C(C)(C)C)cccn2c1Cl

melting point [°C] | SMILES
172 to 174 | CC(C)(C)c1ccc(-c2ccc(C(=O)CCC(=O)O)cc2)cc1
> 255 | COC(=O)c1c(O)c2c([nH]c1=O)CCCCC2
131 to 132 | COc1ccc(NC(=O)CCCCC(=O)Cc2ccccc2)cc1
87.1 | CC(C(=O)NCCO)c1ccc(C(=O)c2cccs2)cc1 (configuration not stated)
174 to 175 | CN1CCNC(C(=O)Cn2c(-c3cc(Cl)ccn3)nc3cccnc32)C1 (configuration not stated)
24 | C=C(C)C(=O)N1CC(C)OC1(C)C (configuration not stated)
293 to 296 | O=C(Nc1cccc(F)c1)Nc1cnnc(Cl)c1
101 to 103 | CCCC(=O)c1cnc2c(OCCCN3CCCC3)cccc2c1Nc1ccccc1C
36 to 38 | CCCCOC1CCC(=O)N1 (configuration not stated)
196 to 198 | O=C1Cc2cc(Cl)cc(Oc3ccccc3Cl)c2N1
195 to 198 | CN1N=C2c3ccccc3CCC2C1c1ccncc1 (configuration not stated)
104 to 106 | O=C1C(=O)c2ccccc2C2=C1SCC1(CCN(Cc3ccc(F)cc3)CC1)O2
158 to 159 | COc1cc2c(cc1OCc1ccccc1)CCN(C(=O)c1ccc(C#N)cc1)C2=O
110 to 115 | O=C(Nc1ccc(C(=O)N2Cc3ccccc3Cc3ccccc32)cc1)c1ccccc1Cl
190 to 191 | COc1cc2ncnc(N3CCc4cc(F)ccc43)c2cc1OC
165 to 169 | CCOC(=O)C1(NS(=O)(=O)c2ccc3c(Cl)cnc(NC(=N)N)c3c2)CCC1
85 to 86 | COc1cc(-c2nn(C)c(C(F)(F)F)c2Br)c(F)cc1Cl
140 to 145 | CCN(Cc1cc(Br)ccc1OCc1ccccc1)c1ncc(C(=O)NS(=O)(=O)c2ccccc2)s1
200 to 202 | COc1cc(OC)nc(NC(=O)NS(=O)(=O)c2c(C(F)F)nsc2OCC(F)(F)F)n1
117 to 119 | CC(C)(C)OC(=O)CC1(CC(=O)O)CCC(=O)Nc2ccccc21 (configuration not stated)
62 to 64 | C=CCOC(=O)CC(C(C)=O)S(=O)(=O)c1ccccc1 (configuration not stated)
170 to 171 | CN(Cc1cc(C(F)(F)F)cc(C(F)(F)F)c1)C(=O)c1oc(=O)c2ccc(Cl)cc2c1-c1ccccc1
212 to 213 | CS(=O)(=O)c1ccc(Oc2c(-c3ccc(S(C)(=O)=O)cc3)cnn(CC(F)(F)F)c2=O)cc1
202 to 203 | Cc1ccccc1CNC(=O)c1cc(C)c([N+](=O)[O-])c(C)c1

SMILES | melting point [°C]
CN(c1nc(Nc2ccc(O)cc2)nc(NC2CCCCCC2)n1)C1CCNCC1 | 130
Cc1nnc2n1-c1ccccc1C(c1ccc(Cl)cc1)=NC2NN(C(=O)NN)c1ccccc1 (configuration not stated) | 175 to 177
C#CCN(c1c(Br)cc(Br)cc1Br)[N+](=O)[O-] | 58 to 58.5
